# In patent US8703427B2, “Biological materials and uses thereof” (PhotoBiotics Limited, priority 2005, dated 2014):
# pIC50: −log10 of the molar value.
# Experiments:
# [1] = system: Barrett's oesophagus cancer; conditions: clinical PDT, systemic; cited from earlier work
# [2] = system: Basal cell cancer of skin; conditions: clinical PDT, topical; cited from earlier work
# [3] = in vivo; cited from earlier work
# Her-2 receptor (human) = Her-2 receptor (human) (UniProt P04626); assay: cell-based or functional assay
# Oral cancer = conditions: clinical PDT, over 5-53 months; cited from earlier work
# [4] = system: Chest wall recurrence in breast cancer; conditions: clinical PDT; cited from earlier work
# Bladder cancer = conditions: clinical PDT; cited from earlier work
# [5] = Fluorescence of conjugates in PBS (excitation 410 nm, emission 680 nm); assay type: physicochemical; conditions: measured in PBS buffer
# Description: • 1. Serial dilutions (halving concentrations) of the conjugates were made in PBS and the fluorescence was measured at an excitation wavelength of 410 nm and an emission wavelength of 680 nm. • 2. These were compared to free PPa in PBS. Examples are shown for c6.5 scFv-PPa (FIG. 11) and MFE scFv-PPA (+/− benzoic acid) (FIG. 12)
# KB cells [6] = assay: Immunofluorescent microscopy, HER-2-negative cells; assay type: cell-based, human; conditions: 1 hour incubation; images and emission spectra
# Description: FIG. 24—Immunofluorescent microscopy of C6.5-PPa photo-immunoconjugate Antigen negative KB cells (A-D) or antigen positive SKOV3 cells (E-J) were incubated with free PPa or C6.5-PPa photo-immunoconjugate for 1 hour. Images and emission spectra were recorded.
# • 1. Round coverslips were washed in ethanol and rinsed in PBS. Coverslips were then placed in 12-well tissue culture plates. • 2. SKOV3 cells were trypsinised and washed with PBS. The cell pellet was resuspended in McCoy's media and cells were seeded onto the coverslips at 2×10^5 cells/ml. The cells were incubated overnight at 37° C. and 5% CO2. • 3. The coverslips with the adherent cells were rinsed carefully in PBS and either C6-PPa or PBS was added to the wells. The cells were incubated at 37° C. and 5% CO2 for 30 minutes after which time they were washed carefully with PBS. • 4. The cells were fixed onto the coverslips by incubating in 2 ml 4% paraformaldehyde for 60 minutes at room temperature. After this time, the coverslips were washed with PBS and inverted cell-side down onto glass slides. The edges of the coverslips were then sealed using nail varnish. • 5. Fluorescence imaging was then performed using an Ar+ laser (418 nm) as excitation source, using a Leica laser scanning confocal microscope, images are shown in FIGS. 20 and 24, and the emission spectrum is shown in FIGS. 21 and 24.
# SKOV3 cells = assay: In vitro PDT cell killing (Cytotox-96), antigen-positive cells; assay type: cell-based, human; conditions: 30 min incubation, laser light 2 min, 1.4 J/cm^2, cell kill assay after 48 hours
# Description: (§1) • 1. […] The flask was incubated at 37° C., 5% CO2 for 15 mins or until the cells had detached from the flask. The cells were then placed in a 50 ml Falcon tube and the trypsin deactivated by adding 15 ml DMEM or McCoy's medium. • 3. Cells (20 μl) were taken out of the tube and placed on a haemocytometer for counting. The remaining cells were harvested at 1800 g for 10 min at room temperature and the pellet gently resuspended in 1 ml of DMEM or McCoy's medium. The cells were thoroughly resuspended and a further 19 ml of DMEM or McCoy's medium added. The cells were diluted in DMEM or McCoy's medium accordingly to give 2×10^6 cells/ml. Cells (50 μl) were then added to each well of a 96 well plate and incubated overnight at 37° C. and 5% CO2. • 4. […] Cells were washed once with PBS and 50 μl of the conjugate added to wells in quadruplicate. Control wells were also included (wells with conjugate added but not exposed to light, and wells with neither conjugate added nor exposed to light). […] Cells were incubated in the conjugate or free PS (concentration varies) for 30 min at 37° C., 5% CO2 and then washed 3 times with PBS. […] The PBS was removed from each well and 100 μl of DMEM or McCoy's medium added. The plates were loosely wrapped in foil, but covered adequately so that no ambient light could enter.
# KB cells [7] = assay: In vitro PDT cell killing (Cytotox-96), antigen-negative cells; assay type: cell-based, human; conditions: 30 min incubation, laser light 2 min, 1.4 J/cm^2, cell kill assay after 48 hours
# Description: as §1
# [8] = system: vision loss associated with AMD; conditions: PDT compared to the placebo control; cited from earlier work
# Barrett's mucosal cancer = conditions: clinical PDT; cited from earlier work
compound,measurement,setting,value
"NCC(=O)CCC(=O)O [ALA, 5-aminolaevulinic acid]",High-grade dysplasia,[1],erradicated in all patients
same,complete response,[2],90% complete response
"Oc1cccc(-c2c3nc(c(-c4cccc(O)c4)c4ccc([nH]4)c(-c4cccc(O)c4)c4nc(c(-c5cccc(O)c5)c5ccc2[nH]5)CC4)C=C3)c1 [Foscan™, meta-tetrahydroxyphenyl chlorin]",skin photosensitivity,[3],about 2 weeks
C6.5 scFv-Verteporfin (Visudyne™) conjugate,IC50 of in vitro PDT cell killing on antigen-positive SKOV3 cells,Her-2 receptor (human),2.2 µM
Dihematoporphyrin ether,complete response,Oral cancer,87% complete response
same,complete response,[4],"20% complete response,"
same,partial response,[4],45% partial response
Hematoporphyrin derivative,alive after 5 years,Bladder cancer,30% alive after 5 years
same,complete response,Bladder cancer,"74% complete response,"
Pyropheophorbide a [PPa],fluorescence / photophysical properties,[5],does not fluoresce significantly
same,"uptake of PPa, KB cells vs SKOV3 cells",KB cells [6],over 2 fold
benzoporphyrin derivative mono acid [Verteporfin (Visudyne™)],pIC50,SKOV3 cells,4.82
same,pIC50,KB cells [7],5.00
same,recovering vision loss associated with AMD,[8],more effective
porfimer sodium,conversion to normal epithelium,Barrett's mucosal cancer,75% conversion to normal
same,tumours,Barrett's mucosal cancer,eliminated
